Reference: patent publication US9833497B2, “Human originated EGF domain proteins and use of the same” (CHENGDU SOURCEBIO LIMITED-LIABILITY COMPANY, priority 2013, dated 2017)

Assays:
Format in all cases: cell-based
Moraxella catarrhalis = experiment: MIC against Gram-negative bacteria: Moraxella catarrhalis; settings: 5×10^5 CFU/mL; for MIC against M. catarrhalis / MIC (μg/mL) M. catarrhalis: Moraxella catarrhalis
Outline: (§1)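 Antibacterial activity of purified human EGF domain proteins: two-fold concentration series, triplicate wells, LB broth, 5×10^5 CFU/mL bacteria, 37° C shaking incubation. The lowest concentration without growth defines the MIC.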

Serratia marcescens = experiment: MIC against Gram-negative bacteria: Serratia marcescens; settings: 5×10^5 CFU/mL; for MIC against S. marcescens / MIC (μg/mL) S. marcescens: Serratia marcescens
Outline: as §1

Citrobacter diversus = experiment: MIC against Gram-negative bacteria: Citrobacter diversus; settings: 5×10^5 CFU/mL; for MIC against C. diversus / MIC (μg/mL) C. diversus: Citrobacter diversus
Outline: as §1

Proteus vulgaris = experiment: MIC against Gram-negative bacteria: Proteus vulgaris; settings: 5×10^5 CFU/mL; for MIC against P. vulgaris / MIC (μg/mL) P. vulgaris: Proteus vulgaris
Outline: as §1

E. coli DH5α = experiment: Antibacterial activity: MIC and growth curve against E. coli DH5α in 96-well plate; settings: minimal inhibitory concentration against E. coli DH5α; 96-well plate, 5×10^5 CFU/mL, 37° C., judged after 8 h
Outline: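 MIC taken as lowest protein level with no bacterial growth, tracked by A600 every 30 min during 37 °C, 175 rpm culture. Two-fold protein series 50-12.5 μg/mL final, triplicate wells, against 5×10^5 CFU/mL of LB-washed mid-log cells.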

Pseudomonas aeruginosa = experiment: MIC against Gram-negative bacteria: Pseudomonas aeruginosa; settings: 5×10^5 CFU/mL; for MIC against P. aeruginosa / MIC (μg/mL) P. aeruginosa: Pseudomonas aeruginosa
Outline: as §1

Klebsiella pneumonia = experiment: MIC against Gram-negative bacteria: Klebsiella pneumonia; settings: 5×10^5 CFU/mL; for MIC against K. pneumonia / MIC (μg/mL) K. pneumonia: Klebsiella pneumonia
Outline: as §1

Proteus mirabilis = experiment: MIC against Gram-negative bacteria: Proteus mirabilis; settings: 5×10^5 CFU/mL; for MIC against P. mirabilis / MIC (μg/mL) P. mirabilis: Proteus mirabilis
Outline: as §1

E. coli BL21 = experiment: MIC against Gram-negative bacteria: E. coli BL21; settings: 5×10^5 CFU/mL
Outline: as §1

Aeromonas hydrophila = experiment: MIC against Gram-negative bacteria: Aeromonas hydrophila; settings: 5×10^5 CFU/mL; for MIC against A. hydrophila / MIC (μg/mL) A. hydrophila: Aeromonas hydrophila
Outline: as §1

Enterobacter cloacae = experiment: MIC against Gram-negative bacteria: Enterobacter cloacae; settings: 5×10^5 CFU/mL; for MIC against E. cloacae / MIC (μg/mL) E. cloacae: Enterobacter cloacae
Outline: as §1

| Substance | MIC (E. coli DH5α) [µg/mL] | MIC M. catarrhalis (Moraxella catarrhalis; 96-well plate, 37° C., 10 h) [µg/mL] | MIC S. marcescens (Serratia marcescens; 96-well plate, 37° C., 10 h) [µg/mL] | MIC C. diversus (Citrobacter diversus; 96-well plate, 37° C., 10 h) [µg/mL] | MIC P. vulgaris (Proteus vulgaris; 96-well plate, 37° C., 10 h) [µg/mL] | MIC P. aeruginosa (Pseudomonas aeruginosa; 96-well plate, 37° C., 10 h) [µg/mL] | MIC K. pneumonia (Klebsiella pneumonia; 96-well plate, 37° C., 10 h) [µg/mL] | MIC P. mirabilis (Proteus mirabilis; 96-well plate, 37° C., 10 h) [µg/mL] | MIC E. coli BL21 (E. coli BL21; 96-well plate, 37° C., 10 h) [µg/mL] | MIC A. hydrophila (Aeromonas hydrophila; 96-well plate, 37° C., 10 h) [µg/mL] | MIC E. cloacae (Enterobacter cloacae; 96-well plate, 37° C., 10 h) [µg/mL] | MIC (μg/mL) M. catarrhalis (Moraxella catarrhalis; 96-well plate, 37° C., 10 h) [µg/mL] | MIC (μg/mL) S. marcescens (Serratia marcescens; 96-well plate, 37° C., 10 h) [µg/mL] | MIC (μg/mL) C. diversus (Citrobacter diversus; 96-well plate, 37° C., 10 h) [µg/mL] | MIC (μg/mL) P. vulgaris (Proteus vulgaris; 96-well plate, 37° C., 10 h) [µg/mL] | MIC (μg/mL) P. aeruginosa (Pseudomonas aeruginosa; 96-well plate, 37° C., 10 h) [µg/mL] | MIC (μg/mL) K. pneumonia (Klebsiella pneumonia; 96-well plate, 37° C., 10 h) [µg/mL] | MIC (μg/mL) P. mirabilis (Proteus mirabilis; 96-well plate, 37° C., 10 h) [µg/mL] | MIC (μg/mL) E. coli BL21 (E. coli BL21; 96-well plate, 37° C., 10 h) [µg/mL] | MIC (μg/mL) A. hydrophila (Aeromonas hydrophila; 96-well plate, 37° C., 10 h) [µg/mL] | also measured |
| --- | --- | --- | --- | --- | --- | --- | --- | --- | --- | --- | --- | --- | --- | --- | --- | --- | --- | --- | --- | --- | --- |
| PRT1321 (AIDECELDMRGGCHTDALCSYVGPGQSRCTCKLGFAGDGYQCS; listed as Homo sapiens) | 50 | – | – | – | – | – | – | – | – | – | – | – | – | – | – | – | – | – | – | – | MIC against M. catarrhalis (Moraxella catarrhalis; 96-well plate, 37° C., 10 h): 50 µg/mL; MIC against S. marcescens (Serratia marcescens; 96-well plate, 37° C., 10 h): 12.5 µg/mL; MIC against C. diversus (Citrobacter diversus; 96-well plate, 37° C., 10 h): 12.5 µg/mL; MIC against P. vulgaris (Proteus vulgaris; 96-well plate, 37° C., 10 h): 100 µg/mL; MIC against P. aeruginosa (Pseudomonas aeruginosa; 96-well plate, 37° C., 10 h): 50 µg/mL; MIC against K. pneumonia (Klebsiella pneumonia; 96-well plate, 37° C., 10 h): 25 µg/mL; MIC against P. mirabilis (Proteus mirabilis; 96-well plate, 37° C., 10 h): 12.5 µg/mL; MIC against E. coli BL21 (E. coli BL21; 96-well plate, 37° C., 10 h): 12.5 µg/mL; MIC against A. hydrophila (Aeromonas hydrophila; 96-well plate, 37° C., 10 h): 50 µg/mL; MIC against E. cloacae (Enterobacter cloacae; 96-well plate, 37° C., 10 h): 12.5 µg/mL |
| PRT671 (RVVVCPLPCMNGGQCSSRNQCLCPPDFTGRFCQ; listed as Homo sapiens) | 50 | 25 | 12.5 | 12.5 | 25 | 12.5 | 12.5 | 12.5 | 12.5 | 25 | 12.5 | – | – | – | – | – | – | – | – | – | – |
| PRT38 (VRDLCGQRTTDACEQLCDPETGECSCHEGYAPDPVHRHLCV; listed as Homo sapiens) | 50 | – | – | – | – | – | – | – | – | – | – | 12.5 | 50 | 50 | 50 | 12.5 | 50 | 25 | 25 | 100 | MIC (μg/mL) E. cloacae (Enterobacter cloacae; 96-well plate, 37° C., 10 h): 25 µg/mL |
| PRT1475 (DINECKDPSNINGGCSQICDNTPGSYHCSCKNGFVMLSNKKDCK; listed as Homo sapiens) | 25 | – | – | – | – | – | – | – | – | – | – | – | – | – | – | – | – | – | – | – | MIC against M. catarrhalis (Moraxella catarrhalis; 10 h cultivation at 37° C.): 12.5 µg/mL; MIC against S. marcescens (Serratia marcescens; 10 h cultivation at 37° C.): 12.5 µg/mL; MIC against C. diversus (Citrobacter diversus; 10 h cultivation at 37° C.): 25 µg/mL; MIC against P. vulgaris (Proteus vulgaris; 10 h cultivation at 37° C.): 12.5 µg/mL; MIC against P. aeruginosa (Pseudomonas aeruginosa; 10 h cultivation at 37° C.): 12.5 µg/mL; MIC against K. pneumonia (Klebsiella pneumonia; 10 h cultivation at 37° C.): 12.5 µg/mL; MIC against P. mirabilis (Proteus mirabilis; 10 h cultivation at 37° C.): 25 µg/mL; MIC against E. coli BL21 (E. coli BL21; 10 h cultivation at 37° C.): 12.5 µg/mL; MIC against A. hydrophila (Aeromonas hydrophila; 10 h cultivation at 37° C.): 12.5 µg/mL; MIC against E. cloacae (Enterobacter cloacae; 10 h cultivation at 37° C.): 25 µg/mL |
| PRT23 (KKNPCNAEFQNFCIHGECKYIEHLEAVTCKCQQEYFGERCG; listed as Homo sapiens) | 12.5 | – | – | – | – | – | – | – | – | – | – | 25 | 50 | 50 | 25 | 12.5 | 12.5 | 50 | 25 | 12.5 | MIC (μg/mL) E. cloacae (Enterobacter cloacae; 96-well plate, 37° C., 10 h): 25 µg/mL |
| PRT680 (DVNECAEGSPCSPGWCENLPGSFRCTCAQGYAPAPDGRSCL; listed as Homo sapiens) | 12.5 | 50 | 25 | 25 | 50 | 25 | 50 | 12.5 | 25 | 12.5 | 25 | – | – | – | – | – | – | – | – | – | – |
